From publication PMC6409085, “Three odorant-binding proteins are involved in the behavioral response of Sogatella furcifera to rice plant volatiles” (PeerJ, 2019)
Where “and” joins values, the source holds several entries; their conditions need not be identical. Equal values may be shown once.

Experiments:
Assay in all cases: biochemical
Type in all cases: binding
SfurOBP1 = SfurOBP1 (Sogatella furcifera, UniProt V5T8N5); conditions: for Fluorescence competitive binding assay, fluorescence intensity: OBP1, three replicate columns
Chain of SfurOBP1 (V5T8N5 entry or part of it): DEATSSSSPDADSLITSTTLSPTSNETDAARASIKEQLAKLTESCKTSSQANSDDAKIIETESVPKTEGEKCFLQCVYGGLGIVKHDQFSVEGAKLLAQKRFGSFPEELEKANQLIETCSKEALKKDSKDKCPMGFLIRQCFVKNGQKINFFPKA
Description: (§1) Thirty-six rice odorants ([He et al., 2014]; [Wang et al., 2017]) and 1-N-phenyl-naphthylamine (1-NPN) were purchased from Sigma-Aldrich (St Louis, MO, USA). These odorants and 1-NPN were dissolved in high-performance liquid chromatography (HPLC) purify grade methanol for 1.0 mM as work solution.
(§2) Fluorescence competitive binding assays were performed on Tecan Spark 10M (Tecan Group Ltd., Männedorf, Switzerland) with the F96 Black ELIAS Plate (Sangon) ([Khuhro et al., 2017]; [Liu et al., 2017]). The solutions were excited at 337 nm and emission spectra were recorded between 390 and 490 nm. First, to test the binding constants of 1-NPN to the SfurOBPs, a 2.0 µM solution of protein in 50 mM Tris-HCl (pH = 7.4) was titrated with 1 mM 1-NPN to achieve virous concentrations. Next, the competitive binding of each odorant was measured using the 1-NPN as fluorescent reporter and odorant as competitor. The concentrations of protein and 1-NPN were both 2.0 µM, the odorant added after protein and 1-NPN added into the well of ELIAS Plate for 2 min. The final concentrations of each competitor were 2, 4, 6, 8, 10, 12, 14, 16, 18 and 20 µM. After 2 min of odorant added, the fluorescence intensity was measured and recorded. The volume of mixed solution in each well was maintained at 250 µL. Each interaction was performed in triplicates.
(§3) GraphPad Prism 7.0 software (GraphPad Software, Inc., La Jolla, CA, USA) was used to calculated and generated the binding constants (K1−NPN) of 1-NPN to SfurOBPs and relative Scatchard plots ([Ban et al., 2003]; [Li et al., 2016]). Dissociation constant (Ki) of each odorant to SfurOBP was computed from the corresponding IC50 value (the half maximal inhibitory concentration), using the following equation: Ki=[IC50]/(1 + [1-NPN]/K1−NPN), where [1-NPN] is the free concentration of 1-NPN and K1−NPN is the dissociation constant of the complex protein/1-NPN.

SfurOBP3 = SfurOBP3 (Sogatella furcifera, UniProt V5T818); conditions: for Fluorescence competitive binding assay, fluorescence intensity: OBP3, three replicate columns
Chain of SfurOBP3 (V5T818 entry or part of it): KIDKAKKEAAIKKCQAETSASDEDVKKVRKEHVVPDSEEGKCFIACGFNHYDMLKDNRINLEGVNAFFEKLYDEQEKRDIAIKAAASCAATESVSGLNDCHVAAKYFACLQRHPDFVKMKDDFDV
Description: as §1, §2, §3

SfurOBP2 = SfurOBP2 (Sogatella furcifera, UniProt V5T759)
Chain of SfurOBP2 (V5T759 entry or part of it): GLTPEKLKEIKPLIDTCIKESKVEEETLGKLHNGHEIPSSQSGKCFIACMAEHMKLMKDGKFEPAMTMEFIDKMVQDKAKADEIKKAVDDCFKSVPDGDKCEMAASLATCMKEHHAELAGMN
Description: as §1, §2, §3

SfurOBP11 = SfurOBP11 (Sogatella furcifera, UniProt V5T6E3)
Chain of SfurOBP11 (V5T6E3 entry or part of it): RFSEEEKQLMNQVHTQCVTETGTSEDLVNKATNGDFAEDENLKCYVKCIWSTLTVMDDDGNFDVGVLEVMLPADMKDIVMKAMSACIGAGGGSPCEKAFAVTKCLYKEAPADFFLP
Description: as §1, §2, §3

c1ccc2ccccc2c1 [naphthalene]
IC50 (SfurOBP1): > 20 µM | Fluorescence competitive binding assay, fluorescence intensity (SfurOBP1; ligand concentration 2 (μM)): 5483 and 5608 and 5501 | Fluorescence competitive binding assay, fluorescence intensity (SfurOBP1; ligand concentration 4 (μM)): 5830 and 5745 and 5659 | Fluorescence competitive binding assay, fluorescence intensity (SfurOBP1; ligand concentration 6 (μM)): 5799 and 5826 and 5942 | Fluorescence competitive binding assay, fluorescence intensity (SfurOBP1; ligand concentration 8 (μM)): 6002 and 5983 and 5964 | Fluorescence competitive binding assay, fluorescence intensity (SfurOBP1; ligand concentration 10 (μM)): 5834 and 6388 and 6102 | Fluorescence competitive binding assay, fluorescence intensity (SfurOBP1; ligand concentration 12 (μM)): 6285 and 6121 and 6209 | Fluorescence competitive binding assay, fluorescence intensity (SfurOBP1; ligand concentration 14 (μM)): 6231 and 6194 and 6297 | Fluorescence competitive binding assay, fluorescence intensity (SfurOBP1; ligand concentration 16 (μM)): 6398 and 6743 and 6035 | Fluorescence competitive binding assay, fluorescence intensity (SfurOBP1; ligand concentration 18 (μM)): 6548 and 7178 and 7195 | Fluorescence competitive binding assay, fluorescence intensity (SfurOBP1; ligand concentration 20 (μM)): 7389 and 7177 and 6994 | IC50 (SfurOBP3): > 20 µM | Fluorescence competitive binding assay, fluorescence intensity (SfurOBP3; ligand concentration 2): 99229 and 86961 and 92264 | Fluorescence competitive binding assay, fluorescence intensity (SfurOBP3; ligand concentration 4): 97193 and 95605 and 87600 | Fluorescence competitive binding assay, fluorescence intensity (SfurOBP3; ligand concentration 6): 102900 and 102445 and 98166 | Fluorescence competitive binding assay, fluorescence intensity (SfurOBP3; ligand concentration 8): 100522 and 107674 and 104095 | Fluorescence competitive binding assay, fluorescence intensity (SfurOBP3; ligand concentration 10): 49630 and 50618 and 48648 | Fluorescence competitive binding assay, fluorescence intensity (SfurOBP3; ligand concentration 12): 46251 and 47333 and 45186 | Fluorescence competitive binding assay, fluorescence intensity (SfurOBP3; ligand concentration 14): 39681 and 44579 and 42492 | Fluorescence competitive binding assay, fluorescence intensity (SfurOBP3; ligand concentration 16): 42940 and 41521 and 40287 | Fluorescence competitive binding assay, fluorescence intensity (SfurOBP3; ligand concentration 18): 51522 and 51973 and 51748 | Fluorescence competitive binding assay, fluorescence intensity (SfurOBP3; ligand concentration 20): 50731 and 60428 and 55580 | IC50 (SfurOBP2): > 20 µM | Fluorescence competitive binding assay, OBP2 (raw fluorescence reading) (SfurOBP2; ligand concentration 2 (unit not given), replicate column 1 of 3): 21005 | Fluorescence competitive binding assay, OBP2 (raw fluorescence reading) (SfurOBP2; ligand concentration 2 (unit not given), replicate column 2 of 3): 21502 | Fluorescence competitive binding assay, OBP2 (raw fluorescence reading) (SfurOBP2; ligand concentration 2 (unit not given), replicate column 3 of 3): 19080 | Fluorescence competitive binding assay, OBP2 (raw fluorescence reading) (SfurOBP2; ligand concentration 4 (unit not given), replicate column 1 of 3): 24365 | Fluorescence competitive binding assay, OBP2 (raw fluorescence reading) (SfurOBP2; ligand concentration 4 (unit not given), replicate column 2 of 3): 22710 | Fluorescence competitive binding assay, OBP2 (raw fluorescence reading) (SfurOBP2; ligand concentration 4 (unit not given), replicate column 3 of 3): 24844 | Fluorescence competitive binding assay, OBP2 (raw fluorescence reading) (SfurOBP2; ligand concentration 6 (unit not given), replicate column 1 of 3): 22191 | Fluorescence competitive binding assay, OBP2 (raw fluorescence reading) (SfurOBP2; ligand concentration 6 (unit not given), replicate column 2 of 3): 22417 | Fluorescence competitive binding assay, OBP2 (raw fluorescence reading) (SfurOBP2; ligand concentration 6 (unit not given), replicate column 3 of 3): 22519 | Fluorescence competitive binding assay, OBP2 (raw fluorescence reading) (SfurOBP2; ligand concentration 8 (unit not given), replicate column 1 of 3): 23158 | Fluorescence competitive binding assay, OBP2 (raw fluorescence reading) (SfurOBP2; ligand concentration 8 (unit not given), replicate column 2 of 3): 21663 | Fluorescence competitive binding assay, OBP2 (raw fluorescence reading) (SfurOBP2; ligand concentration 8 (unit not given), replicate column 3 of 3): 20781 | Fluorescence competitive binding assay, OBP2 (raw fluorescence reading) (SfurOBP2; ligand concentration 10 (unit not given), replicate column 1 of 3): 20596 | Fluorescence competitive binding assay, OBP2 (raw fluorescence reading) (SfurOBP2; ligand concentration 10 (unit not given), replicate column 2 of 3): 20292 | Fluorescence competitive binding assay, OBP2 (raw fluorescence reading) (SfurOBP2; ligand concentration 10 (unit not given), replicate column 3 of 3): 20233 | Fluorescence competitive binding assay, OBP2 (raw fluorescence reading) (SfurOBP2; ligand concentration 12 (unit not given), replicate column 1 of 3): 19697 | Fluorescence competitive binding assay, OBP2 (raw fluorescence reading) (SfurOBP2; ligand concentration 12 (unit not given), replicate column 2 of 3): 18134 | Fluorescence competitive binding assay, OBP2 (raw fluorescence reading) (SfurOBP2; ligand concentration 12 (unit not given), replicate column 3 of 3): 19454 | Fluorescence competitive binding assay, OBP2 (raw fluorescence reading) (SfurOBP2; ligand concentration 14 (unit not given), replicate column 1 of 3): 17572 | Fluorescence competitive binding assay, OBP2 (raw fluorescence reading) (SfurOBP2; ligand concentration 14 (unit not given), replicate column 2 of 3): 18013 | Fluorescence competitive binding assay, OBP2 (raw fluorescence reading) (SfurOBP2; ligand concentration 14 (unit not given), replicate column 3 of 3): 17420 | Fluorescence competitive binding assay, OBP2 (raw fluorescence reading) (SfurOBP2; ligand concentration 16 (unit not given), replicate column 1 of 3): 16408 | Fluorescence competitive binding assay, OBP2 (raw fluorescence reading) (SfurOBP2; ligand concentration 16 (unit not given), replicate column 2 of 3): 15544 | Fluorescence competitive binding assay, OBP2 (raw fluorescence reading) (SfurOBP2; ligand concentration 16 (unit not given), replicate column 3 of 3): 15169 | Fluorescence competitive binding assay, OBP2 (raw fluorescence reading) (SfurOBP2; ligand concentration 18 (unit not given), replicate column 1 of 3): 18334 | Fluorescence competitive binding assay, OBP2 (raw fluorescence reading) (SfurOBP2; ligand concentration 18 (unit not given), replicate column 2 of 3): 23371 | Fluorescence competitive binding assay, OBP2 (raw fluorescence reading) (SfurOBP2; ligand concentration 18 (unit not given), replicate column 3 of 3): 18960 | Fluorescence competitive binding assay, OBP2 (raw fluorescence reading) (SfurOBP2; ligand concentration 20 (unit not given), replicate column 1 of 3): 17296 | Fluorescence competitive binding assay, OBP2 (raw fluorescence reading) (SfurOBP2; ligand concentration 20 (unit not given), replicate column 2 of 3): 16882 | Fluorescence competitive binding assay, OBP2 (raw fluorescence reading) (SfurOBP2; ligand concentration 20 (unit not given), replicate column 3 of 3): 15413 | IC50 (SfurOBP11): > 20 µM | Fluorescence intensity, fluorescence competitive binding assay, OBP11 (SfurOBP11; ligand concentration 2, replicate 1): 34403 | Fluorescence intensity, fluorescence competitive binding assay, OBP11 (SfurOBP11; ligand concentration 2, replicate 2): 32473 | Fluorescence intensity, fluorescence competitive binding assay, OBP11 (SfurOBP11; ligand concentration 2, replicate 3): 34898 | Fluorescence intensity, fluorescence competitive binding assay, OBP11 (SfurOBP11; ligand concentration 4, replicate 1): 34130 | Fluorescence intensity, fluorescence competitive binding assay, OBP11 (SfurOBP11; ligand concentration 4, replicate 2): 34738 | Fluorescence intensity, fluorescence competitive binding assay, OBP11 (SfurOBP11; ligand concentration 4, replicate 3): 32492 | Fluorescence intensity, fluorescence competitive binding assay, OBP11 (SfurOBP11; ligand concentration 6, replicate 1): 35498 | Fluorescence intensity, fluorescence competitive binding assay, OBP11 (SfurOBP11; ligand concentration 6, replicate 2): 33550 | Fluorescence intensity, fluorescence competitive binding assay, OBP11 (SfurOBP11; ligand concentration 6, replicate 3): 32552 | Fluorescence intensity, fluorescence competitive binding assay, OBP11 (SfurOBP11; ligand concentration 8, replicate 1): 32155 | Fluorescence intensity, fluorescence competitive binding assay, OBP11 (SfurOBP11; ligand concentration 8, replicate 2): 35048 | Fluorescence intensity, fluorescence competitive binding assay, OBP11 (SfurOBP11; ligand concentration 8, replicate 3): 30051 | Fluorescence intensity, fluorescence competitive binding assay, OBP11 (SfurOBP11; ligand concentration 10, replicate 1): 30839 | Fluorescence intensity, fluorescence competitive binding assay, OBP11 (SfurOBP11; ligand concentration 10, replicate 2): 29352 | Fluorescence intensity, fluorescence competitive binding assay, OBP11 (SfurOBP11; ligand concentration 10, replicate 3): 29736 | Fluorescence intensity, fluorescence competitive binding assay, OBP11 (SfurOBP11; ligand concentration 12, replicate 1): 30215 | Fluorescence intensity, fluorescence competitive binding assay, OBP11 (SfurOBP11; ligand concentration 12, replicate 2): 28382 | Fluorescence intensity, fluorescence competitive binding assay, OBP11 (SfurOBP11; ligand concentration 12, replicate 3): 27824 | Fluorescence intensity, fluorescence competitive binding assay, OBP11 (SfurOBP11; ligand concentration 14, replicate 1): 26586 | Fluorescence intensity, fluorescence competitive binding assay, OBP11 (SfurOBP11; ligand concentration 14, replicate 2): 26869 | Fluorescence intensity, fluorescence competitive binding assay, OBP11 (SfurOBP11; ligand concentration 14, replicate 3): 27309 | Fluorescence intensity, fluorescence competitive binding assay, OBP11 (SfurOBP11; ligand concentration 16, replicate 1): 25698 | Fluorescence intensity, fluorescence competitive binding assay, OBP11 (SfurOBP11; ligand concentration 16, replicate 2): 25045 | Fluorescence intensity, fluorescence competitive binding assay, OBP11 (SfurOBP11; ligand concentration 16, replicate 3): 25361 | Fluorescence intensity, fluorescence competitive binding assay, OBP11 (SfurOBP11; ligand concentration 18, replicate 1): 25004 | Fluorescence intensity, fluorescence competitive binding assay, OBP11 (SfurOBP11; ligand concentration 18, replicate 2): 25141 | Fluorescence intensity, fluorescence competitive binding assay, OBP11 (SfurOBP11; ligand concentration 18, replicate 3): 24946 | Fluorescence intensity, fluorescence competitive binding assay, OBP11 (SfurOBP11; ligand concentration 20, replicate 1): 23792 | Fluorescence intensity, fluorescence competitive binding assay, OBP11 (SfurOBP11; ligand concentration 20, replicate 2): 23804 | Fluorescence intensity, fluorescence competitive binding assay, OBP11 (SfurOBP11; ligand concentration 20, replicate 3): 23815
